The source of these data is ChEMBL document CHEMBL5154740, “Novel Aurora A and Protein Kinase C (α, β1, β2, and θ) Multitarget Inhibitors: Impact of Selenium Atoms on the Potency and Selectivity” (J Med Chem, 2022).

The target of assay [1] is Tyrosine-protein kinase ABL1 (Homo sapiens) (UniProt P00519). Description: Inhibition of ABL1 (unknown origin) at 50 nM by Z'LYTE screening method relative to control.
For assay [2], the target named is DNA-dependent protein kinase catalytic subunit (Homo sapiens) (UniProt P78527). Description: Inhibition of DNA-PK (unknown origin) at 50 nM by Z'LYTE screening method relative to control.
Assay [3] has as its target T1, Eukaryotic elongation factor 2 kinase (Homo sapiens) (UniProt O00418).
T1 sequence (whole entry): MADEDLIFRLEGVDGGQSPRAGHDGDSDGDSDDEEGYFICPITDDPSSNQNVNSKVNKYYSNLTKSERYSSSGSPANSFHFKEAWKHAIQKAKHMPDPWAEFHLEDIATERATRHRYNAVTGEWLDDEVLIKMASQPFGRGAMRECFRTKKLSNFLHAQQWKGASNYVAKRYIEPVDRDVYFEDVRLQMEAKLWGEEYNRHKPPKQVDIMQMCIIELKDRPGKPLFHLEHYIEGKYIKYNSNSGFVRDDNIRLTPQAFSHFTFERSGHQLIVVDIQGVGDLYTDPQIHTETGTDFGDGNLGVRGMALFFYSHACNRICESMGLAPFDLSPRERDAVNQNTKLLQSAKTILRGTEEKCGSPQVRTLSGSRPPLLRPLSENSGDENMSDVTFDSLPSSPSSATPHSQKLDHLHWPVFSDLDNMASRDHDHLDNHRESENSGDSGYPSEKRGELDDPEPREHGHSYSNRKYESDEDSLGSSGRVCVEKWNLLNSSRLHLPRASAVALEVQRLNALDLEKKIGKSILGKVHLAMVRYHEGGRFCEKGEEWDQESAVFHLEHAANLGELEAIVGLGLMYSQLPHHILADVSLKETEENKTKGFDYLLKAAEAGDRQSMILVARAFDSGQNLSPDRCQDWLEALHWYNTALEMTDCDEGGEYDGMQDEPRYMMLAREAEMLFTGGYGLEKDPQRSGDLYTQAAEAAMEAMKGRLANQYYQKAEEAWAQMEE
Put plainly: Inhibition of EEF2K (unknown origin) at 50 nM by Z'LYTE screening method relative to control.

In assay [4] the target is Vascular endothelial growth factor receptor 1 (Homo sapiens) (UniProt P17948). Description: Inhibition of FLT1/VEGFR1(unknown origin) at 50 nM by Z'LYTE screening method relative to control.
Chain of Vascular endothelial growth factor receptor 1 (Homo sapiens) (P17948 whole entry): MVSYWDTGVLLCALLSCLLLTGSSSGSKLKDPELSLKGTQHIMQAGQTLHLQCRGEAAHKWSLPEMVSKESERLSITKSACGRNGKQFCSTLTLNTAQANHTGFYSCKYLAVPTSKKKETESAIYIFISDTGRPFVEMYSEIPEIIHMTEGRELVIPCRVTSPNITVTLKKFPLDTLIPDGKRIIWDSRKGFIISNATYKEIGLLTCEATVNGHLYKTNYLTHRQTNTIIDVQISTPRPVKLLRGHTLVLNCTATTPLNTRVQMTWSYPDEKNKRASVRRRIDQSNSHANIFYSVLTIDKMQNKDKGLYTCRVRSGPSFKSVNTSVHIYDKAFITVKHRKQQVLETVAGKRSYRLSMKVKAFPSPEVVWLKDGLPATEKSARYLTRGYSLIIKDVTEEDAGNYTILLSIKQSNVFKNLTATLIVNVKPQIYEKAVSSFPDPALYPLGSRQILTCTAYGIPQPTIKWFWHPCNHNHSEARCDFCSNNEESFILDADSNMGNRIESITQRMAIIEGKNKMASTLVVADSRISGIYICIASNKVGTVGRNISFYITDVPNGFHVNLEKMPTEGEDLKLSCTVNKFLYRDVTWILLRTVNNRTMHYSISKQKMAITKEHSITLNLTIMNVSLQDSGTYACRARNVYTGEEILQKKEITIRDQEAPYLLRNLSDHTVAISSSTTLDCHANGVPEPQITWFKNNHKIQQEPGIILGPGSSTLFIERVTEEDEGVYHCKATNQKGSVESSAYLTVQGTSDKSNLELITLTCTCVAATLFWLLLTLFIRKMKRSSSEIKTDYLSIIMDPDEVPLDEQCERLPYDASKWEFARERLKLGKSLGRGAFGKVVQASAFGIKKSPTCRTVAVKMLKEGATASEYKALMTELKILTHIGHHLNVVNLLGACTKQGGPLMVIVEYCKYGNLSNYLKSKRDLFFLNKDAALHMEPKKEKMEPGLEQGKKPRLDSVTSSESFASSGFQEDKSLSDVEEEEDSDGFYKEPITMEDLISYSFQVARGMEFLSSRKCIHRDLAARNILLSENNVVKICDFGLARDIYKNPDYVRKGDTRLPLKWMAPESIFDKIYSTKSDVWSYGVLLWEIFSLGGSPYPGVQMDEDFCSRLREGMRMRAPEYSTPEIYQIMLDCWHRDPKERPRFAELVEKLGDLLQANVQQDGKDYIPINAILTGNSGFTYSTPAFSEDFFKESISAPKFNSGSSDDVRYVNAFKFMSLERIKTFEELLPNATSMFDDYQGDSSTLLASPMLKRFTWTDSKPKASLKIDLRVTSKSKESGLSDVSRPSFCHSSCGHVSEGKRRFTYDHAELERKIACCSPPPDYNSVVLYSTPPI
For assay [5], the target named is Mitogen-activated protein kinase 8 (Homo sapiens) (UniProt P45983). Put plainly: Inhibition of MAPK8 (unknown origin) at 50 nM by Z'LYTE screening method relative to control.
Chain of Mitogen-activated protein kinase 8 (Homo sapiens) (P45983 whole entry): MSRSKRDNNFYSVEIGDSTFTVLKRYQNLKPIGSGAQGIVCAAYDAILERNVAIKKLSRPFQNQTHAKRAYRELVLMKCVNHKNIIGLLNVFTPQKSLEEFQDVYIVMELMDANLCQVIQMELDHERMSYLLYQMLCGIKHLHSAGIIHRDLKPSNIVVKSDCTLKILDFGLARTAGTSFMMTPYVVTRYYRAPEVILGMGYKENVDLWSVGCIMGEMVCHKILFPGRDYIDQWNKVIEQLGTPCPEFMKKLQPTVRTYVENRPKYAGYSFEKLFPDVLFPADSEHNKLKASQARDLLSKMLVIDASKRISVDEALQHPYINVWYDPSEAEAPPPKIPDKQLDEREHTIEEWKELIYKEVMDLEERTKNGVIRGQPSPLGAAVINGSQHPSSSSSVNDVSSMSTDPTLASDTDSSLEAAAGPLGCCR
Assay [6] concerns the target T2, Serine/threonine-protein kinase D3 (Homo sapiens) (UniProt O94806).
T2 sequence (whole entry): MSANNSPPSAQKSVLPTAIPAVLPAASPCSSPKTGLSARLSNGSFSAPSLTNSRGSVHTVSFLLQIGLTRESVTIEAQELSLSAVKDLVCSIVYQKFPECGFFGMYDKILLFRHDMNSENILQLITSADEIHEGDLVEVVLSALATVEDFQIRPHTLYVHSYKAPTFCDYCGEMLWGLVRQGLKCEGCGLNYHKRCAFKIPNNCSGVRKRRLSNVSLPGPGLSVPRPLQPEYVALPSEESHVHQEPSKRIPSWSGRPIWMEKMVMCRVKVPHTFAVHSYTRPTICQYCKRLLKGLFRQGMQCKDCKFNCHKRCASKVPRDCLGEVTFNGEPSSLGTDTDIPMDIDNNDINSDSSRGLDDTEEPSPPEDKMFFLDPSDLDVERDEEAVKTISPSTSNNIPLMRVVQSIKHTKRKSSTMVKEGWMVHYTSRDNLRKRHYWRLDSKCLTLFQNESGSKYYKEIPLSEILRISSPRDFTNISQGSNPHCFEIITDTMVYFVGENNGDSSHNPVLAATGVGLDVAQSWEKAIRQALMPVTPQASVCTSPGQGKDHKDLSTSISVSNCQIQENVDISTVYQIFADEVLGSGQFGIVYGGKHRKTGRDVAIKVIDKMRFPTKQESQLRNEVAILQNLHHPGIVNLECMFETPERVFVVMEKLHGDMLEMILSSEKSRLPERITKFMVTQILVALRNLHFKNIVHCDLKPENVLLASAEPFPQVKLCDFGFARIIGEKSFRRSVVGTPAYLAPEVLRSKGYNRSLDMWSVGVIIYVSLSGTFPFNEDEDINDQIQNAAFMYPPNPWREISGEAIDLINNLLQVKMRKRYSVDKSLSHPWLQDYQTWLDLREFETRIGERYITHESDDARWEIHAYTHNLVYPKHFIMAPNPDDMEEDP
Put plainly: Inhibition of PKCnu (unknown origin) at 50 nM by Z'LYTE screening method relative to control.

Assay [7] deals with T3, Protein kinase C zeta type (Homo sapiens) (UniProt Q05513).
T3 sequence (whole entry): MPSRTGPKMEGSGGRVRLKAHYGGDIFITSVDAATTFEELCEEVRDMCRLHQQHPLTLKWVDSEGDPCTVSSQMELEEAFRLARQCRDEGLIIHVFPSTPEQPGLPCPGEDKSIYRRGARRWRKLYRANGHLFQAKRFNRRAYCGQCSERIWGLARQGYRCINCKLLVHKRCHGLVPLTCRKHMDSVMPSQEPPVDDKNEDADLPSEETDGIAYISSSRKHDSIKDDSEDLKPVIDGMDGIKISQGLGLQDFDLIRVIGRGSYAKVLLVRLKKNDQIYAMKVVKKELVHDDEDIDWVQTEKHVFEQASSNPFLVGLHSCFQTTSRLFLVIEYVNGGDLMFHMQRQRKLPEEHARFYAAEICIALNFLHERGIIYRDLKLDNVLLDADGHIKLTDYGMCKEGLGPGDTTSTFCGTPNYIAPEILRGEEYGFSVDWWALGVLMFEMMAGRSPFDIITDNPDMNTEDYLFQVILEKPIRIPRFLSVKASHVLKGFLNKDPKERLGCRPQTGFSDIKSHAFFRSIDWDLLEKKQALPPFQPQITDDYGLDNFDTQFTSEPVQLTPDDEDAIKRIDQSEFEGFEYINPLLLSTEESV
Description: Inhibition of PKCzeta (unknown origin) at 50 nM by Z'LYTE screening method relative to control.

Assay [8] deals with Protein kinase C gamma type (Homo sapiens) (UniProt P05129). Put plainly: Inhibition of PKC gamma (unknown origin) at 50 nM by Z'LYTE screening method relative to control.
For assay [9], the target named is Ribosomal protein S6 kinase alpha-1 (Homo sapiens) (UniProt Q15418). Description: Inhibition of RPS6KA1 (unknown origin) at 50 nM by Z'LYTE screening method relative to control.
Chain of Ribosomal protein S6 kinase alpha-1 (Homo sapiens) (Q15418 whole entry): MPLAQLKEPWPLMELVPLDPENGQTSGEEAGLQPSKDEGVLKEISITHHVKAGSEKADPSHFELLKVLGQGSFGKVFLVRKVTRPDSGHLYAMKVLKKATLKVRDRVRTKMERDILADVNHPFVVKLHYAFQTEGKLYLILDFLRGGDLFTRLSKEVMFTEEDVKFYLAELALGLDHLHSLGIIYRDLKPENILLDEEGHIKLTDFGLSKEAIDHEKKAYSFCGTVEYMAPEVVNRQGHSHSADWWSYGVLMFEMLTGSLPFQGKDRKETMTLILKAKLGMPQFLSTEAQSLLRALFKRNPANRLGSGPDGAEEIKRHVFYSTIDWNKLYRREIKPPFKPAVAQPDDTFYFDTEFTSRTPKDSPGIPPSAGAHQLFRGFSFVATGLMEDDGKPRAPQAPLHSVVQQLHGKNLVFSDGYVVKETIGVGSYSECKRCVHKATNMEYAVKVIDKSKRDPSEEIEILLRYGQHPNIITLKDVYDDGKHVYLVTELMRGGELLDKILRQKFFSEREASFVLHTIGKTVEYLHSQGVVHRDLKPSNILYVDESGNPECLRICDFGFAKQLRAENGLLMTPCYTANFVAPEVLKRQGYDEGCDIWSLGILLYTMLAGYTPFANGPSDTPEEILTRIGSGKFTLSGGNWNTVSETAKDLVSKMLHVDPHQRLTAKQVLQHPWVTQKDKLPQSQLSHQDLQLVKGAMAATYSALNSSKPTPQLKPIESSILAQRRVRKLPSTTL
The target of assay [10] is Focal adhesion kinase 1 (Homo sapiens) (UniProt Q05397). Description: Inhibition of FAK (unknown origin) at 50 nM by Z'LYTE screening method relative to control.
Chain of Focal adhesion kinase 1 (Homo sapiens) (Q05397 2-1052 limits assumed): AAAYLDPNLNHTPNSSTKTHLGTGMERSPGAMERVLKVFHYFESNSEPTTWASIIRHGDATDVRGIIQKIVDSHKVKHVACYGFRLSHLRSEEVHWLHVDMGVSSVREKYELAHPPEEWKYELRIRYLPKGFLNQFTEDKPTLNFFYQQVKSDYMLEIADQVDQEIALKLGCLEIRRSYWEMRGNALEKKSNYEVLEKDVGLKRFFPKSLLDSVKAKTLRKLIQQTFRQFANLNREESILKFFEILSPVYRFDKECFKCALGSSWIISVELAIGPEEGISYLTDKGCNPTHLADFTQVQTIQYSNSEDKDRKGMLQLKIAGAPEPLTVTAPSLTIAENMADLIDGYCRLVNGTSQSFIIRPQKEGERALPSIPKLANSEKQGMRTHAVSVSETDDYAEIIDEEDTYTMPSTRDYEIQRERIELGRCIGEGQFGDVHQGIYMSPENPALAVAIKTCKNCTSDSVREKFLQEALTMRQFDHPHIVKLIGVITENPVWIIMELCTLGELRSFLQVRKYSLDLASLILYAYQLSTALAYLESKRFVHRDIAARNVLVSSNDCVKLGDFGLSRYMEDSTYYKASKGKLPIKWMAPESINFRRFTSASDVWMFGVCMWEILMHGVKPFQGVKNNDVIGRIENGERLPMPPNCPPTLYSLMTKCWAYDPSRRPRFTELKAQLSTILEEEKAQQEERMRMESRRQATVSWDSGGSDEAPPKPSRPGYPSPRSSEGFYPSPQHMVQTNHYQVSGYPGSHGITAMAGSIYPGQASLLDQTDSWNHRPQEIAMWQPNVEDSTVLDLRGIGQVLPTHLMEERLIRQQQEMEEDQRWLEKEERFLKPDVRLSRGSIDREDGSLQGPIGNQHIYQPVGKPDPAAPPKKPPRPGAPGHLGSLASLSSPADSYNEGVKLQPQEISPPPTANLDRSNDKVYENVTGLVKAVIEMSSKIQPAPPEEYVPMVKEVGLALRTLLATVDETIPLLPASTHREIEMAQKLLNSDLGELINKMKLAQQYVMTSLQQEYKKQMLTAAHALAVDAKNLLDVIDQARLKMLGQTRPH
Assay [11] concerns the target Ribosomal protein S6 kinase beta-1 (Homo sapiens) (UniProt P23443). Put plainly: Inhibition of p70S6K (unknown origin) at 50 nM by Z'LYTE screening method relative to control.

Chain of Ribosomal protein S6 kinase beta-1 (Homo sapiens) (P23443 whole entry, looked up): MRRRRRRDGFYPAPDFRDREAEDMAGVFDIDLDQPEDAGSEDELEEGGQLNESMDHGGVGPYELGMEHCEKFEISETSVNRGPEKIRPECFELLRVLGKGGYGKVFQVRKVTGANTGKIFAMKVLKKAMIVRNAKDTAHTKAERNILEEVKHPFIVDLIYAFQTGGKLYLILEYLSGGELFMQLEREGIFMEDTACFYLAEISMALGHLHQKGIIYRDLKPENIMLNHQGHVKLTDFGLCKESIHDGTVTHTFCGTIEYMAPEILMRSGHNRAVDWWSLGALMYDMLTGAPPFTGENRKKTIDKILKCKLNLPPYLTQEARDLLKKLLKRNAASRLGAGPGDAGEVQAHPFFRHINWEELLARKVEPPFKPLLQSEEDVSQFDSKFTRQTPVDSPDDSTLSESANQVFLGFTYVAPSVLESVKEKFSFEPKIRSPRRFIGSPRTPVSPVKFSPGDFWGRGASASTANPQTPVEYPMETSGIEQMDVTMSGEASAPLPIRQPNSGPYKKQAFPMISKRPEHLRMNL

Consider `O=c1c2ccccc2[se]n1-c1nc(N[C@@H]2C[C@H]3CC[C@@H]2C3)c2nc[nH]c2n1`, for which the inhibition (commonly the change of the read-out against control, counted positive when it falls) in [1] is 2%; in assay [2], 0%; in assay [3] it was 2%; in [4] it was 1%; in assay [5], 0%; in [6] it was 1%. In addition, the inhibition in [7] amounted to 7%; in assay [8], 0%; in assay [9], 0%; in assay [10], 0%; in assay [11], 2%.

Consider `O=c1c2ccccc2[se]n1-c1nc(NC2CCCCC2)c2nc[nH]c2n1`, for which the inhibition in assay [1] stood at 1%; in assay [2], 0%; in [3] it was 1%; in [4], 2%; in [5] it was 0%; in assay [6] it was 0%. Moreover, the inhibition turned out to be 9% in [7]; 45% in assay [8]; 2% in assay [9]; 0% in [10]; 1% in assay [11].

As for `CCN(CC)CCCC(C)Nc1nc(-n2[se]c3ccccc3c2=O)nc2[nH]cnc12` (stereo unspecified), the inhibition was determined as 11% in assay [1]; 0% in assay [2]; 0% in assay [3]; 1% in [4]; 0% in assay [5]; 11% in assay [6]. For the same molecule, the inhibition in assay [7] was determined as 9%; in assay [8] it was 6%; in assay [9] it was 0%; in assay [10], 4%; in assay [11], 0%.

As to `O=c1c2ccccc2[se]n1-c1nc(Nc2ccccc2)c2nc[nH]c2n1`, the inhibition was determined as 0% in assay [1]; 0% in assay [2]; 1% in assay [3]; 1% in [4]; 0% in assay [5]; 0% in assay [6]. The inhibition in assay [7] is 4%; in [8], 0%; in assay [9], 0%; in assay [10], 0%; in assay [11], 0%.

As for `O=c1c2ccccc2[se]n1-c1nc(N[C@H]2CCOC2)c2nc[nH]c2n1`, the inhibition came to 8% in assay [1]; 0% in assay [2]; 2% in assay [3]; 0% in [4]; 0% in assay [5]; 3% in assay [6]. Further, the inhibition in assay [7] stood at 2%; in assay [8] it was 25%; in assay [9] it was 5%; in assay [10], 0%; in [11], 6%.

In the case of `O=C1c2ccccc2CN1c1nc(NC2CCCCC2)c2nc[nH]c2n1`, the inhibition in assay [1] was found to be 0%; in [2], 0%; in [3] it was 1%; in assay [4], 0%; in assay [5], 0%; in assay [6], 0%. The inhibition stood at 9% in assay [7]; 0% in assay [8]; 2% in [9]; 0% in [10]; 1% in assay [11].

`O=C1c2ccccc2CN1c1nc(N[C@H]2CC[Se]C2)c2nc[nH]c2n1`: the inhibition is 0% in assay [1]; 0% in [2]; 2% in [3]; 1% in [4]; 0% in [5]; 3% in [6]. Moreover, the inhibition in [7] stood at 6%; in assay [8], 3%; in assay [9], 0%; in [10], 0%; in assay [11], 2%.

As for `CCN(CC)CCCC(C)Nc1nc(N2Cc3ccccc3C2=O)nc2[nH]cnc12` (stereo unspecified), the inhibition came out at 1% in [1]; 0% in [2]; 1% in assay [3]; 2% in assay [4]; 0% in assay [5]; 2% in [6]. The inhibition was 7% in assay [7]; 1% in assay [8]; 0% in assay [9]; 0% in [10]; 1% in assay [11].

In the case of `C[C@@H]1[C@H]2C[C@@H](C[C@H]1Nc1nc(-n3[se]c4ccccc4c3=O)nc3[nH]cnc13)C2(C)C`, the inhibition in [1] was found to be 1%; in assay [2] it was 0%; in assay [3], 2%; in assay [4] it was 1%; in assay [5], 0%; in assay [6], 1%. In addition, the inhibition in assay [7] worked out at 7%; in assay [8], 1%; in assay [9], 0%; in assay [10] it was 0%; in assay [11], 2%.

As for `O=C1c2ccccc2CN1c1nc(NC2CCCC2)c2nc[nH]c2n1`, the inhibition worked out at 1% in assay [1]; 0% in assay [2]; 2% in [3]; 1% in assay [4]; 0% in [5]; 4% in assay [6]. The inhibition in assay [7] was 6%; in [8], 2%; in assay [9] it was 1%; in assay [10], 0%; in assay [11], 1%.

With `CCCNc1nc(-n2[se]c3ccccc3c2=O)nc2[nH]cnc12`, the inhibition in [1], in assay [2], in assay [3], in assay [4], in [5] and in assay [6] was 0% in each case. Further, the inhibition came out at 3% in [7]; 1% in assay [8]; 0% in [9]; 0% in assay [10]; 0% in assay [11].
